From patent US10570184B2, “GLP-1/glucagon receptor co-agonists for medical use” (Novo Nordisk A/S, priority 2014, dated 2020)
Starred links: 1 amine or outer side, 2 acyl side, 3 side chain; linkers in the order of their positions; H or OH if unused. Non-standard residues stand in square brackets, D forms with d. Residues, ends and D or L forms follow the SMILES beside them. Groups on a side chain read outwards from the residue. *: point of attachment. C18 diacid = O=C(O)CCCCCCCCCCCCCCCCC(=O)*; γGlu = O=C(O)[C@H](CCC(=O)[*:2])N[*:1]; Ac4c = NC1(C(=O)O)CCC1; AEEA = NCCOCCOCC(=O)O; Aib = CC(C)(N)C(=O)O

Key:
[1] = molecular target: T1, human GLP-1 receptor (Homo sapiens, UniProt P43220); assay: Assay (I)(a) GLP-1 receptor activation, CRE luciferase reporter gene assay in BHK cells; assay type: cell-based; details: without presence of serum albumin; read-out: GLP-1R EC50 (pM) [Assay (I)(a)]
T1 construct: expressed in transfected cells; host or cells: membranes of BHK cells (parent BHKTS13), clone FCW467-12A
T1 sequence (P43220 24-463): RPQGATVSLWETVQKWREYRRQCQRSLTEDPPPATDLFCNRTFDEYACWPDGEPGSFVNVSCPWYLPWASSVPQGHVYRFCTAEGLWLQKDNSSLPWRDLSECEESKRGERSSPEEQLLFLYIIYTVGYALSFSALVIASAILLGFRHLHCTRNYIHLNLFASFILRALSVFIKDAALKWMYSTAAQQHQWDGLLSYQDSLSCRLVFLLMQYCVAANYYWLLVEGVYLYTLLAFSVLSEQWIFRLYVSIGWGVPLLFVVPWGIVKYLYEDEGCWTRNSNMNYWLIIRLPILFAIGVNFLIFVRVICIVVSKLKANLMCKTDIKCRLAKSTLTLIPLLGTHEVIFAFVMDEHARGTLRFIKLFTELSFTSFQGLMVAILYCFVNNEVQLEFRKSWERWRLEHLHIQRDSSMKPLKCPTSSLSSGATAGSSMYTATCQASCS
Description: The purpose of this example was to test the activity or potency, of the glucagon derivatives of the invention, in vitro. The in vitro potency is the measure of human GLP-1 receptor (GLP-1R) or glucagon receptor (glucagonR) activation, respectively, in a whole cell assay. In vitro potency was determined by measuring the response of human GLP-1 or glucagon receptor, respectively, in a reporter gene assay. The assay was performed in a stably transfected BHK cell line that expresses either the human GLP-1 receptor or the human glucagon receptor and contains the DNA for the cAMP response element (CRE) coupled to a promoter and the gene for firefly luciferase (CRE luciferase). […] When assay incubation was completed, the luciferase substrate (luciferin) was added and the enzyme converted luciferin to oxyluciferin and produces bioluminescence. The luminescence was measured as the readout for the assay. The cells used in this assay (clone FCW467-12A/KZ10-1) were BHK cells with BHKTS13 as a parent cell line. The cells were derived from a clone (FCW467-12A) that expresses the human GLP-1 receptor and were established by further transfection with CRE luciferase to obtain the current clone. The cells were cultured at 5% CO2 in DMEM medium with 10% FBS, 1×GlutaMAX, 1 mg/ml G418, 240 nM MTX (methotrexate) and 1% pen/strep (penicillin/streptomycin). They were aliquoted and stored in liquid nitrogen. Before each assay, an aliquot was taken up and washed three times in PBS before being suspended at the desired concentration in assay medium. For 96-well plates the suspension was made to give a final concentration of 5×10EE3 cells/well. The following chemicals were used in the assay: Pluronic F-68 (10%) (Gibco 2404), ovalbumin (Sigma A5503), DMEM w/o phenol red (Gibco 11880-028), 1 M Hepes (Gibco 15630), Glutamax 100× (Gibco 35050) and steadylite plus (PerkinElmer 6016757). Assay Medium consisted of DMEM w/o phenol red, 10 mM Hepes, 1× GlutaMAX, 2% Ovalbumin and 0.2% Pluronic F-68. Cell stocks were thawed in a 37° C. water bath. Cells were washed three times in PBS. The cells were counted and adjusted to 5×10EE3 cells/50 μl (1×10EE5 cells/ml) in Assay Medium. A 50 μl aliquot of cells was transferred to each well in the assay plate. Stocks of the test compounds and reference compounds were diluted to a concentration of […] in Assay Medium. Compounds were diluted 10-fold to give the following concentrations: 2×10EE-6 M, 2×10EE-7 M, 2×10EE-8 M; 2×10EE-9 M, 2×10EE-10 M, 2×10EE-11 M, 2×10EE-12 M and 2×10EE-13 M. For each compound a blank assay medium control was also included. A 50 μl aliquot of compound or blank was transferred from the dilution plate to the assay plate. Compounds were tested at the following final concentrations: 1×10EE-6 M, 1×10EE-7 M, 1×10EE-8 M; 1×10EE-9 M, 1×10EE-10 M, 1×10EE-11 M and 1×10EE-12 M and 1×10EE-13 M. The assay plate was incubated for 3 h in a 5% CO2 incubator at 37° C. The assay plate was removed from the incubator and allowed to stand at room temperature for 15 min. A 100 μl aliquot of steadylite plus reagent was added to each well of the assay plate (reagent is light sensitive). Each assay plate was covered with aluminum foil to protect it from light and shaken for 30 min at room temperature. Each assay plate was read in a Perkin Elmer TopCount NXT instrument. The data from the TopCount instrument was transferred to GraphPad Prism software. The software performed a non-linear regression (log(agonist) vs response-Variable slope (four parameter)). EC50 values were calculated by the software and reported in pM.

[2] = molecular target: T1, human GLP-1 receptor; assay: Assay (II)(a) GLP-1 receptor binding, 125I-GLP-1 displacement SPA on BHK membranes; details: without presence of serum albumin; read-out: GLP-1R IC50 (nM) [Assay (II)(a)]
Summary of the method: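 Membranes from BHK cells (clone FCW467-12A) stably expressing human GLP-1R were incubated with serially diluted compounds (8×10EE-13 to 8×10EE-7 M before addition) and [125I]-GLP-1-(7-36)NH2 with WGA SPA beads, 2 h at 30° C, pH 7.4. IC50 taken from displacement by non-linear regression. Run at ≤0.001% or 2.0% final serum albumin.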

Row | EC50 [1] [pM] | IC50 [2] [nM] | SMILES
1 | 5 | 0.1 | CC[C@H](C)[C@H](NC(=O)[C@H](CC(C)C)NC(=O)[C@H](Cc1c[nH]c2ccccc12)NC(=O)[C@H](CCC(N)=O)NC(=O)[C@@H](NC(=O)[C@H](Cc1ccccc1)NC(=O)[C@H](CCC(=O)O)NC(=O)[C@H](CCCNC(=N)N)NC(=O)[C@H](C)NC(=O)[C@H](CCCNC(=N)N)NC(=O)[C@H](CCCNC(=N)N)NC(=O)[C@H](C)NC(=O)[C@H](CC(=O)O)NC(=O)[C@H](CC(C)C)NC(=O)[C@H](Cc1ccc(O)cc1)NC(=O)[C@H](CCCCN)NC(=O)[C@H](CO)NC(=O)[C@H](CC(C)C)NC(=O)[C@H](CC(=O)O)NC(=O)[C@H](CO)NC(=O)[C@@H](NC(=O)[C@H](Cc1ccccc1)NC(=O)[C@@H](NC(=O)CNC(=O)[C@H](CCC(N)=O)NC(=O)C(C)(C)NC(=O)[C@@H](N)Cc1c[nH]cn1)[C@@H](C)O)[C@@H](C)O)C(C)C)C(=O)N[C@@H](CCCCNC(=O)COCCOCCNC(=O)COCCOCCNC(=O)CC[C@H](NC(=O)CC[C@H](NC(=O)CC[C@H](NC(=O)CCCCCCCCCCCCCCCCC(=O)O)C(=O)O)C(=O)O)C(=O)O)C(=O)N[C@H](C(N)=O)[C@@H](C)O [Chem. 6, N^ε28-[2-[2-[2-[[2-[2-[2-[[(4S)-4-carboxy-4-[[(4S)-4-carboxy-4-[[(4S)-4-carboxy-4-(17-carboxyheptadecanoylamino)butanoyl]amino]butanoyl]amino]butanoyl]amino]ethoxy]ethoxy]acetyl]amino]ethoxy]ethoxy]acetyl]-[Aib2,Leu10,Ala16,Arg20,Glu21,Ile27,Lys28]-Glucagon amide] (H-H[Aib]QGTFTSDLSKYLDARRAREFVQWLIK([AEEA-AEEA-γGlu-γGlu-γGlu-C18 diacid])T-NH2; N-terminus assumed)
2 | 7 | 0.1 | CC[C@H](C)[C@H](NC(=O)[C@H](CC(C)C)NC(=O)[C@H](Cc1c[nH]c2ccccc12)NC(=O)[C@H](CCC(N)=O)NC(=O)[C@@H](NC(=O)[C@H](Cc1ccccc1)NC(=O)[C@H](CC(=O)O)NC(=O)[C@H](CCC(N)=O)NC(=O)[C@H](C)NC(=O)[C@H](CCCNC(=N)N)NC(=O)[C@H](CCCNC(=N)N)NC(=O)[C@H](CO)NC(=O)[C@H](CCC(=O)O)NC(=O)[C@H](CC(C)C)NC(=O)[C@H](Cc1ccc(O)cc1)NC(=O)[C@H](CCCCN)NC(=O)[C@H](CO)NC(=O)[C@H](CC(C)C)NC(=O)[C@H](CC(=O)O)NC(=O)[C@H](CO)NC(=O)[C@@H](NC(=O)[C@H](Cc1ccccc1)NC(=O)[C@@H](NC(=O)CNC(=O)[C@H](CCC(N)=O)NC(=O)C(C)(C)NC(=O)[C@@H](N)Cc1c[nH]cn1)[C@@H](C)O)[C@@H](C)O)C(C)C)C(=O)N[C@@H](CCCCNC(=O)COCCOCCNC(=O)COCCOCCNC(=O)CC[C@H](NC(=O)CC[C@H](NC(=O)CC[C@H](NC(=O)CCCCCCCCCCCCCCCCC(=O)O)C(=O)O)C(=O)O)C(=O)O)C(=O)N[C@H](C(N)=O)[C@@H](C)O [Chem. 8, N^ε28-[2-[2-[2-[[2-[2-[2-[[(4S)-4-carboxy-4-[[(4S)-4-carboxy-4-[[(4S)-4-carboxy-4-(17-carboxyheptadecanoylamino)butanoyl]amino]butanoyl]amino]butanoyl]amino]ethoxy]ethoxy]acetyl]amino]ethoxy]ethoxy]acetyl]-[Aib2,Leu10,Glu15,Ile27,Lys28]-Glucagon amide] (H-H[Aib]QGTFTSDLSKYLESRRAQDFVQWLIK([AEEA-AEEA-γGlu-γGlu-γGlu-C18 diacid])T-NH2; N-terminus assumed)
3 | 3 | 0.1 | CC[C@H](C)[C@H](NC(=O)[C@H](CC(C)C)NC(=O)[C@H](Cc1c[nH]c2ccccc12)NC(=O)[C@H](CCC(N)=O)NC(=O)[C@@H](NC(=O)[C@H](Cc1ccccc1)NC(=O)[C@H](CC(=O)O)NC(=O)[C@H](CCC(N)=O)NC(=O)[C@H](C)NC(=O)[C@H](CCCNC(=N)N)NC(=O)[C@H](CCCNC(=N)N)NC(=O)[C@H](CO)NC(=O)[C@H](CCC(=O)O)NC(=O)[C@H](CC(C)C)NC(=O)[C@H](Cc1ccc(O)cc1)NC(=O)[C@H](CCCCN)NC(=O)[C@H](CO)NC(=O)[C@@H](NC(=O)[C@H](CC(=O)O)NC(=O)[C@H](CO)NC(=O)[C@@H](NC(=O)[C@H](Cc1ccccc1)NC(=O)[C@@H](NC(=O)CNC(=O)[C@H](CCC(N)=O)NC(=O)C(C)(C)NC(=O)[C@@H](N)Cc1c[nH]cn1)[C@@H](C)O)[C@@H](C)O)C(C)C)C(C)C)C(=O)N[C@@H](CCCCNC(=O)COCCOCCNC(=O)COCCOCCNC(=O)CC[C@H](NC(=O)CC[C@H](NC(=O)CC[C@H](NC(=O)CCCCCCCCCCCCCCCCC(=O)O)C(=O)O)C(=O)O)C(=O)O)C(=O)N[C@H](C(N)=O)[C@@H](C)O [Chem. 10, N^ε28-[2-[2-[2-[[2-[2-[2-[[(4S)-4-carboxy-4-[[(4S)-4-carboxy-4-[[(4S)-4-carboxy-4-(17-carboxyheptadecanoylamino)butanoyl]amino]butanoyl]amino]butanoyl]amino]ethoxy]ethoxy]acetyl]amino]ethoxy]ethoxy]acetyl]-[Aib2,Val10,Glu15,Ile27,Lys28]-Glucagon amide] (H-H[Aib]QGTFTSDVSKYLESRRAQDFVQWLIK([AEEA-AEEA-γGlu-γGlu-γGlu-C18 diacid])T-NH2)
4 | 4 | 0.1 | CC[C@H](C)[C@H](NC(=O)[C@H](CC(C)C)NC(=O)[C@H](Cc1c[nH]c2ccccc12)NC(=O)[C@H](CCC(N)=O)NC(=O)[C@@H](NC(=O)[C@H](Cc1ccccc1)NC(=O)[C@H](CCC(=O)O)NC(=O)[C@H](CCCNC(=N)N)NC(=O)[C@H](C)NC(=O)[C@H](CCCNC(=N)N)NC(=O)[C@H](CCCNC(=N)N)NC(=O)[C@H](CO)NC(=O)[C@H](CCC(=O)O)NC(=O)[C@H](CC(C)C)NC(=O)[C@H](Cc1ccc(O)cc1)NC(=O)[C@H](CCCCN)NC(=O)[C@H](CO)NC(=O)[C@H](CC(C)C)NC(=O)[C@H](CC(=O)O)NC(=O)[C@H](CO)NC(=O)[C@@H](NC(=O)[C@H](Cc1ccccc1)NC(=O)[C@@H](NC(=O)CNC(=O)[C@H](CCC(N)=O)NC(=O)C1(NC(=O)[C@@H](N)Cc2c[nH]cn2)CCC1)[C@@H](C)O)[C@@H](C)O)C(C)C)C(=O)N[C@@H](CCCCNC(=O)CC[C@H](NC(=O)CC[C@H](NC(=O)COCCOCCNC(=O)COCCOCCNC(=O)CC[C@H](NC(=O)CC[C@H](NC(=O)CCCCCCCCCCCCCCCCC(=O)O)C(=O)O)C(=O)O)C(=O)O)C(=O)O)C(=O)N[C@H](C(N)=O)[C@@H](C)O [Chem. 13, N^ε28-[(4S)-4-carboxy-4-[[(4S)-4-carboxy-4-[[2-[2 [2-[[2-[2-[2-[[(4S)-4-carboxy-4-[[(4S)-4-carboxy-4-(17-carboxyheptadecanoylamino)butanoyl]amino]butanoyl]amino]ethoxy]ethoxy]acetyl]amino]ethoxy]ethoxy]acetyl]amino]butanoyl]amino]butanoyl]-[Acb2,Leu10,Glu15,Arg20,Glu21,Ile27,Lys28]-Glucagon amide] (H-H[Ac4c]QGTFTSDLSKYLESRRAREFVQWLIK([γGlu-γGlu-AEEA-AEEA-γGlu-γGlu-C18 diacid])T-NH2)
